“And” between values parts separate entries of the source, which are not always exact repeats. Equal entries are not always repeated. ± gives the expanded uncertainty stated by the source.
Experiments:
[1] = 101.33 kPa, Crystal; for thermal diffusivity: laser flash method
[2] = molar heat capacity at constant pressure; conditions: 101.33 kPa, Resistive pulse heating

[Hf] [hafnium]
[1]
Conditions | thermal diffusivity
285 K | 1.36e-05 ± 5.5e-07 m2/s
293 K | 1.38e-05 ± 5.5e-07 m2/s
321 K | 1.32e-05 ± 5.3e-07 m2/s
326 K | 1.31e-05 ± 5.3e-07 m2/s
375 K | 1.24e-05 ± 5e-07 m2/s
386 K | 1.22e-05 ± 4.9e-07 m2/s
423 K | 1.19e-05 ± 4.7e-07 m2/s
433 K | 1.17e-05 ± 4.7e-07 m2/s
459 K | 1.15e-05 ± 4.6e-07 m2/s
492 K | 1.12e-05 ± 4.5e-07 m2/s
521 K | 1.08e-05 ± 4.3e-07 m2/s
530 K | 1.08e-05 ± 4.3e-07 m2/s
568 K | 1.05e-05 ± 4.2e-07 m2/s
579 K | 1.06e-05 ± 4.2e-07 m2/s
615 K | 1.02e-05 ± 4.1e-07 m2/s
618 K | 1.04e-05 ± 4.2e-07 m2/s
664 K | 1e-05 m2/s and 1.02e-05 m2/s
714 K | 9.91e-06 ± 4e-07 m2/s
715 K | 9.92e-06 ± 4e-07 m2/s
760 K | 9.79e-06 ± 3.9e-07 m2/s
767 K | 9.72e-06 ± 3.9e-07 m2/s
817 K | 9.57e-06 ± 3.8e-07 m2/s
825 K | 9.67e-06 ± 3.9e-07 m2/s
862 K | 9.46e-06 ± 3.8e-07 m2/s
874 K | 9.59e-06 ± 3.8e-07 m2/s
914 K | 9.36e-06 ± 3.7e-07 m2/s
919 K | 9.54e-06 ± 3.8e-07 m2/s
962 K | 9.32e-06 ± 3.7e-07 m2/s
965 K | 9.54e-06 ± 3.8e-07 m2/s
1012 K | 9.29e-06 ± 3.7e-07 m2/s
1017 K | 9.54e-06 ± 3.8e-07 m2/s
1065 K | 9.26e-06 m2/s and 9.53e-06 m2/s
1113 K | 9.27e-06 ± 3.7e-07 m2/s
1118 K | 9.59e-06 ± 3.8e-07 m2/s
1162 K | 9.4e-06 ± 3.8e-07 m2/s
1174 K | 9.6e-06 ± 3.8e-07 m2/s
1215 K | 9.45e-06 ± 3.8e-07 m2/s
1222 K | 9.65e-06 ± 3.9e-07 m2/s
1262 K | 9.43e-06 ± 3.8e-07 m2/s
1277 K | 9.81e-06 ± 3.9e-07 m2/s
1314 K | 9.5e-06 ± 3.8e-07 m2/s
1332 K | 9.85e-06 ± 3.9e-07 m2/s
1362 K | 9.7e-06 ± 3.9e-07 m2/s
1370 K | 1e-05 ± 4e-07 m2/s
1417 K | 9.96e-06 ± 4e-07 m2/s
1430 K | 1.02e-05 ± 4.1e-07 m2/s
1463 K | 1e-05 ± 4e-07 m2/s
1472 K | 1.05e-05 ± 4.2e-07 m2/s

Conditions | mass density | molar heat capacity at constant pressure
[1], 298.1 K, mass over volume | 13222 ± 190 kg/m3 [middle of 5 runs] | –
[2], 294 K, Crystal 2 | – | 25.61 ± 1.5 J/K/mol and 25.77 ± 1.6 J/K/mol
[2], 321 K, Crystal 2 | – | 25.86 ± 1.6 J/K/mol and 26.01 ± 1.6 J/K/mol
[2], 372 K, Crystal 2 | – | 26.33 ± 1.6 J/K/mol and 26.38 ± 1.6 J/K/mol
[2], 421 K, Crystal 2 | – | 26.77 ± 1.6 J/K/mol and 26.7 ± 1.6 J/K/mol
[2], 471 K, Crystal 2 | – | 27.22 ± 1.6 J/K/mol and 27.1 ± 1.6 J/K/mol
[2], 522 K, Crystal 2 | – | 27.67 ± 1.7 J/K/mol and 27.49 ± 1.6 J/K/mol
[2], 571 K, Crystal 2 | – | 28.09 ± 1.7 J/K/mol and 27.88 ± 1.7 J/K/mol
[2], 622 K, Crystal 2 | – | 28.52 ± 1.7 J/K/mol and 28.29 ± 1.7 J/K/mol
[2], 671 K, Crystal 2 | – | 28.93 ± 1.7 J/K/mol and 28.67 ± 1.7 J/K/mol
[2], 721 K, Crystal 2 | – | 29.36 ± 1.8 J/K/mol and 29.04 ± 1.7 J/K/mol
[2], 771 K, Crystal 2 | – | 29.77 ± 1.8 J/K/mol and 29.47 ± 1.8 J/K/mol
[2], 821 K, Crystal 2 | – | 30.17 ± 1.8 J/K/mol and 29.95 ± 1.8 J/K/mol
[2], 871 K, Crystal 2 | – | 30.56 ± 1.8 J/K/mol and 30.4 ± 1.8 J/K/mol
[2], 921 K, Crystal 2 | – | 30.95 ± 1.9 J/K/mol and 30.84 ± 1.9 J/K/mol
[2], 971 K, Crystal 2 | – | 31.34 ± 1.9 J/K/mol and 31.25 ± 1.9 J/K/mol
[2], 1021 K, Crystal 2 | – | 31.72 ± 1.9 J/K/mol and 31.7 ± 1.9 J/K/mol
[2], 1071 K, Crystal 2 | – | 32.08 ± 1.9 J/K/mol and 32.11 ± 1.9 J/K/mol
[2], 1121 K, Crystal 2 | – | 32.45 ± 1.9 J/K/mol and 32.49 ± 1.9 J/K/mol
[2], 1171 K, Crystal 2 | – | 32.84 ± 2 J/K/mol and 32.93 ± 2 J/K/mol
[2], 1221 K, Crystal 2 | – | 33.2 ± 2 J/K/mol and 33.34 ± 2 J/K/mol
[2], 1271 K, Crystal 2 | – | 33.54 ± 2 J/K/mol and 33.73 ± 2 J/K/mol
[2], 1321 K, Crystal 2 | – | 33.88 ± 2 J/K/mol and 34.13 ± 2.1 J/K/mol
[2], 1371 K, Crystal 2 | – | 34.2 ± 2.1 J/K/mol and 34.52 ± 2.1 J/K/mol
[2], 1421 K, Crystal 2 | – | 34.52 ± 2.1 J/K/mol and 34.91 ± 2.1 J/K/mol
[2], 1471 K, Crystal 2 | – | 34.84 ± 2.1 J/K/mol and 35.25 ± 2.1 J/K/mol
[2], 1521 K, Crystal 2 | – | 35.15 ± 2.1 J/K/mol and 35.68 ± 2.1 J/K/mol
[2], 1571 K, Crystal 2 | – | 35.45 ± 2.1 J/K/mol and 36.06 ± 2.2 J/K/mol
[2], 1621 K, Crystal 2 | – | 35.73 ± 2.1 J/K/mol and 36.38 ± 2.2 J/K/mol
[2], 1671 K, Crystal 2 | – | 36.02 ± 2.2 J/K/mol and 36.7 ± 2.2 J/K/mol
[2], 1721 K, Crystal 2 | – | 36.31 ± 2.2 J/K/mol and 37.13 ± 2.2 J/K/mol
[2], 1771 K, Crystal 2 | – | 36.57 ± 2.2 J/K/mol and 37.48 ± 2.2 J/K/mol
[2], 1821 K, Crystal 2 | – | 36.84 ± 2.2 J/K/mol and 37.88 ± 2.3 J/K/mol
[2], 1871 K, Crystal 2 | – | 37.09 ± 2.2 J/K/mol and 38.29 ± 2.3 J/K/mol
[2], 1921 K, Crystal 2 | – | 37.34 ± 2.2 J/K/mol and 38.64 ± 2.3 J/K/mol
[2], 1971 K, Crystal 2 | – | 37.59 ± 2.2 J/K/mol and 40.2 ± 2.4 J/K/mol
[2], 1983 K, Crystal 2 | – | 39.18 ± 2.4 J/K/mol
[2], 2121 K, Crystal 1 | – | 34.13 ± 2.1 J/K/mol and 34.29 ± 2.1 J/K/mol
[2], 2171 K, Crystal 1 | – | 34.18 ± 2.1 J/K/mol and 34.29 ± 2.1 J/K/mol
[2], 2222 K, Crystal 1 | – | 34.23 ± 2.1 J/K/mol and 34.29 ± 2.1 J/K/mol
[2], 2272 K, Crystal 1 | – | 34.29 ± 2.1 J/K/mol
[2], 2321 K, Crystal 1 | – | 34.41 ± 2.1 J/K/mol
[2], 2336 K, Crystal 1 | – | 34.5 ± 2.1 J/K/mol
